Reference: US4182712A, “5-Substituted thiadiazole ureas” (Mobil Oil Corporation, priority 1977, dated 1980)

Tested on: Cotton (CT)
Test: Post-emergence herbicide test, cotton
Assay type: in vivo, Gossypium hirsutum var. DPL smooth leaf
Conditions: Gossypium hirsutum, 336 h, 2 lb/acre, two weeks after treatment
Method: Cotton (CT)--Gossypium hirsutum var. DPL smooth leaf
(§1) All crop and weed species were planted individually in 3" plastic pots containing potting soil. Four seeds each of corn, cotton, and snapbeans were seeded to a depth equal to the diameter of the seed. All other species were surface seeded and sprinkled with screened soil in an amount sufficient to cover the seed. Immediately after planting, all pots were watered by sub-irrigation in greenhouse trays. Pots for the pre-emergence phase were seeded one day before treatment.
(§2) Planting dates for the post-emergence phase were varied so that all seedlings would reach the desired stage of development simultaneously. The proper stage of seedling development for treatment in the post-emergence phase is as follows:
Cotton: first true leaf 1" in length; expanded cotyledons.
(§3) Compounds were tested at rates of application equivalent to 8 lbs. of actual compound per acre in a spray volume of 38 gallons per acre. Spray hood constants required to deliver the above volume are as follows:
(§4) Formulations for spray applications were prepared in 50 ml volumes with the following three components:
(§5) Formulations for the 4 lbs/acre rate were prepared by adjusting the amount of active ingredient accordingly.
(§6) Spray applications were made in a hood containing a removable belt and fixed spray nozzle. […]

| Structure (SMILES) | pest or weed control at 2241.7 g/ha [%] |
| --- | --- |
| CNC(=O)Nc1nnc(SCCCCl)s1 [Example 61] | 40 |

Tested on: Corn (CN)
Test: Post-emergence herbicide test, corn
Assay type: in vivo
Conditions: Zea mays, 336 h, 2 lb/acre, two weeks after treatment
Method: as §1, §2, §3, §4, §5
Spray applications were made in a hood containing a removable belt and fixed spray nozzle. For passage through the spray hood, one pot of each specie (pre-emergence phase) was placed on the rear half of the flat. Treatments were removed to the greenhouse after spraying. […]

| Structure (SMILES) | pest or weed control at 2241.7 g/ha [%] |
| --- | --- |
| CNC(=O)Nc1nnc(SCCCCl)s1 [Example 61] | 100 |

Tested on: Amaranth pigweed (PW)
Test: Post-emergence herbicide test, amaranth pigweed
Assay type: in vivo, Amaranthus retroflexus
Conditions: 336 h, 8 lb/acre, two weeks after treatment
Method: as §1, §2
Pigweed and turnips: 1 or 2 true leaves above visible cotyledons.
as §3, §4, §5, §6

| Structure (SMILES) | pest or weed control at 8966.8 g/ha [%] |
| --- | --- |
| O=C(Nc1ccc(Cl)c(Cl)c1)Nc1nnc(C(F)(F)F)s1 [Example 16] | 100 |

Tested on: crops and weed species
Test: Pre- and post-emergence herbicide tests, overall (Tables III-VI)
Assay type: in vivo
Conditions: in words
Method: as §1, §2, §3
Two weeks after treatment, pre- and post-emergence injury or control was visually rated, and the results were as shown in the following tables. Pre-emergence data are provided in TABLE III and post-emergence data are provided in TABLE IV, for compounds having the formula illustrated in TABLE I. Correspondingly, pre-emergence and post-emergence data, respectively, are set forth in TABLES V AND VI, for compounds having the formula illustrated in TABLE II.

| Structure (SMILES) | herbicidal effectiveness on a variety of crops and weed species | selectivity post-emergence versus pre-emergence | selectivity toward a certain crop or weed species |
| --- | --- | --- | --- |
| CSc1nnc(N(C)C(=O)N(C)C)s1 [Example 5, 1,1,3-trimethyl-3-[5-methylthio-2-(1,3,4-thiadiazolyl)] urea] | extremely effective |  |  |
| C=CCNC(=O)Nc1nnc(C(F)(F)F)s1 [Example 12] |  | control post-emergence growth, while have little effect in regard to pre-emergence |  |
| CNC(=O)Nc1nncs1 [Example 35] |  |  | more selective when applied to a certain crop or weed species |
| CNC(=O)N(C)c1nnc(C(F)(F)F)s1 [Example 36] | extremely effective |  |  |
| CNC(=O)Nc1nnc(SC)s1 [Example 26] | extremely effective |  |  |
| Cc1nnc(NC(=O)N(C)C)s1 [Example 19] |  | The converse of this relationship |  |
| O=C(Nc1ccc(Cl)cc1)Nc1nnc(C(F)(F)F)s1 [Example 15] |  |  | more selective when applied to a certain crop or weed species |
| O=C(Nc1ccc(Cl)c(Cl)c1)Nc1nnc(C(F)(F)F)s1 [Example 16] |  |  | more selective when applied to a certain crop or weed species |
| CNC(=O)Nc1nnc(CC(C)C)s1 [Example 21] |  |  | more selective when applied to a certain crop or weed species |
| CCN(C(=O)NC)c1nnc(C(F)(F)F)s1 [Example 37] | extremely effective |  |  |
| CNC(=O)Nc1nnc(COC)s1 [Example 25] |  |  | more selective when applied to a certain crop or weed species |
| CCNC(=O)Nc1nnc(C(F)(F)F)s1 [Example 9] |  |  | more selective when applied to a certain crop or weed species |
| CNC(=O)Nc1nnc(C(F)(F)F)s1 [Example 1, 1-Methyl-3-[5-Trifluoromethyl-2-(1,3,4-Thiadiazolyl)] Urea] | extremely effective |  |  |
| CCc1nnc(NC(=O)N(C)C)s1 [Example 20] |  |  | more selective when applied to a certain crop or weed species |
| CN(C)C(=O)Nc1nnc(C(F)(F)F)s1 [Example 2, 1,1-Dimethyl-3-[5-Trifluoromethyl-2-(1,3,4-Thiadiazolyl)] Urea] | extremely effective |  |  |
